Experimental data reported in ChEMBL document CHEMBL1201862, “PubChem BioAssay data set” (2004).
Activity calls are given as the source filed them.

Tests used:
Cytochrome P450 2D6 [1] = biological target: T1, Cytochrome P450 2D6 (Homo sapiens, UniProt P10635);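 note: CYP2D6 member of a cytochrome P450 panel assay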
Cytochrome P450 2D6 [2] = biological target: T1, Cytochrome P450 2D6; remark: listed apart in the source
CAAX prenyl protease 1 = CAAX prenyl protease 1 (Saccharomyces cerevisiae S288c, UniProt P47154); assay: yeast CAAX protease Ste24 inhibition – biochemical, S. cerevisiae, plate reader, cherry-pick, dose response (AID 488815)
[3] = bead-based luminescence quenchers, dual-tagged ARNT – biochemical, AlphaScreen, cherry-pick, artefact control for ARNT-TACC3 interaction inhibitor project, dose response (AID 651705); type: functional;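 note: AlphaScreen bead proximity signal that flags compounds interfering with the detection technology; potency reflects signal decrease which marks the compound as an assay artifact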
[4] = biological target: Lysine-specific demethylase 4C (Homo sapiens, UniProt Q9H3R0); assay: inhibition of JMJD2C H3K9me3 demethylation – biochemical, DELFIA europium, cherry-picked samples, dose response (AID 488835); type: functional
[5] = biological target: Lysine-specific demethylase 4A (Homo sapiens, UniProt O75164); assay: inhibition of JMJD2A H3K9me3 demethylation – biochemical, DELFIA europium, cherry-picked samples, selectivity assay for GASC-1 inhibitor project, dose response (AID 488840)
[6] = biological target: T2, Voltage-gated N-type calcium channel alpha-1B subunit/Amyloid beta A4 precursor protein-binding family A member 1 (Homo sapiens, UniProt Q00975+Q02410); type: protein assay
[7] = biological target: T2, Voltage-gated N-type calcium channel alpha-1B subunit/Amyloid beta A4 precursor protein-binding family A member 1; type: protein assay; remark: listed apart in the source
[8] = biological target: Dual specificity protein phosphatase 6 (Rattus norvegicus, UniProt Q64346); assay: inhibition of rat DUSP6 enzyme activity – biochemical, in vitro, primary screen (AID 425)
NS3 = NS3 (Hepatitis C virus, UniProt A3EZJ3); assay: PubChem AID 2173; set-up: species or system Hepacivirus hominis
[9] = biological target: T3, Dual specificity protein phosphatase 3 (Homo sapiens, UniProt P51452); assay: VHR1 phosphatase inhibitors, biochemical (AID 1878)
[10] = biological target: T3, Dual specificity protein phosphatase 3; assay: VHR1 phosphatase inhibitors, primary screen, biochemical, absorbance, uHTS (AID 1654)
[11] = biological target: T4, Tyrosine-protein phosphatase non-receptor type 22 (Homo sapiens, UniProt Q9Y2R2); assay: inhibition of lymphoid tyrosine phosphatase LYP – biochemical, pCAP fluorogenic substrate, fluorescence, set 3, SAR follow-up (AID 449727); type: functional
T4 sequence (Q9Y2R2 whole entry): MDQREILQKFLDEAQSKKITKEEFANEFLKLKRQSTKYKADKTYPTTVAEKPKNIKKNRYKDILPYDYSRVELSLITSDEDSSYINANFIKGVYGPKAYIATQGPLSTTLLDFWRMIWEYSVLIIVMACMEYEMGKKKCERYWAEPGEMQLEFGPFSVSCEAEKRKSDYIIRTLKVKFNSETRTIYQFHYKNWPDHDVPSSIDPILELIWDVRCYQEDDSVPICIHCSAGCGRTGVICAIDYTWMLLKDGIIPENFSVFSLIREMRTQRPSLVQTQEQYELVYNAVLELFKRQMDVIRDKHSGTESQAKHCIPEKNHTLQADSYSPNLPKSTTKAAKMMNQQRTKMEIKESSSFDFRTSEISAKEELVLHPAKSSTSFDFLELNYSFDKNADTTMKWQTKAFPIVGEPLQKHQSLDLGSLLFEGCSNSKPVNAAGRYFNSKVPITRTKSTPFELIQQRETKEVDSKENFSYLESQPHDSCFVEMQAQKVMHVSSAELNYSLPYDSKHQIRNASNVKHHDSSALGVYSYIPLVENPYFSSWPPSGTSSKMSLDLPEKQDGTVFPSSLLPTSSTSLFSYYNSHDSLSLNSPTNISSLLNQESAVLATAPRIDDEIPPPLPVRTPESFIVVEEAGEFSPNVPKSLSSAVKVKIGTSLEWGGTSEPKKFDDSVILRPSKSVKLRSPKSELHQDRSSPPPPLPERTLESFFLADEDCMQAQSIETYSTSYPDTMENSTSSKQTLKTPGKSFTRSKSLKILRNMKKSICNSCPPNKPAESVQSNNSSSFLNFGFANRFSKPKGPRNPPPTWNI

[12] = biological target: Tyrosine-protein phosphatase non-receptor type 12 (Homo sapiens, UniProt Q05209); assay: SAR Selectivity Analysis of small molecule inhibitors of PEST using pCAP in a fluorescence assay. [Related pubchem assays (depositor defined):AID1779, AID1784, AID2135]; type: functional
[13] = biological target: T4, Tyrosine-protein phosphatase non-receptor type 22; assay: SAR LYP1 Fluorescent Assay using OMFP substrate for In Vitro dose response studies - Set 3. [Related pubchem assays (depositor defined):AID1779, AID1784, AID2140, AID2686]; type: functional
[14] = biological target: Glyceraldehyde-3-phosphate dehydrogenase (Homo sapiens, UniProt P04406)
[15] = biological target: T5, Tyrosine-protein phosphatase non-receptor type 7 (Homo sapiens, UniProt P35236); assay: inhibition of hematopoietic tyrosine phosphatase HePTP – biochemical, set 2, SAR follow-up (AID 449736); type: functional
T5 sequence (P35236 whole entry): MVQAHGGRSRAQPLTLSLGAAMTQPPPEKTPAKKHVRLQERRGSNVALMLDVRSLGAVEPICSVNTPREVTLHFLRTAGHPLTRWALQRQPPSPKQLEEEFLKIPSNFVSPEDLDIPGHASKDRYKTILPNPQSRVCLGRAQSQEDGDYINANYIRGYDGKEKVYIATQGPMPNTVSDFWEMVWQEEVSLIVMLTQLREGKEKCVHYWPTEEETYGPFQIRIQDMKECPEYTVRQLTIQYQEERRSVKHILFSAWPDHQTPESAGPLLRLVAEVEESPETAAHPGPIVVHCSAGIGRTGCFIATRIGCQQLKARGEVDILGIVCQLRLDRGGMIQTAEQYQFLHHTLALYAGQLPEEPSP

T3 sequence (P51452 whole entry): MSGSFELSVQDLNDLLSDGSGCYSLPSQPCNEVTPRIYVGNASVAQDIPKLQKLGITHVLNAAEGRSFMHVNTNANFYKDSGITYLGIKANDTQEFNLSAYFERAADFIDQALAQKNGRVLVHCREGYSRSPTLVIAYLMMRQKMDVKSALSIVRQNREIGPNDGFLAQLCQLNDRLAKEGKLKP
T2 sequence (Q00975 whole entry): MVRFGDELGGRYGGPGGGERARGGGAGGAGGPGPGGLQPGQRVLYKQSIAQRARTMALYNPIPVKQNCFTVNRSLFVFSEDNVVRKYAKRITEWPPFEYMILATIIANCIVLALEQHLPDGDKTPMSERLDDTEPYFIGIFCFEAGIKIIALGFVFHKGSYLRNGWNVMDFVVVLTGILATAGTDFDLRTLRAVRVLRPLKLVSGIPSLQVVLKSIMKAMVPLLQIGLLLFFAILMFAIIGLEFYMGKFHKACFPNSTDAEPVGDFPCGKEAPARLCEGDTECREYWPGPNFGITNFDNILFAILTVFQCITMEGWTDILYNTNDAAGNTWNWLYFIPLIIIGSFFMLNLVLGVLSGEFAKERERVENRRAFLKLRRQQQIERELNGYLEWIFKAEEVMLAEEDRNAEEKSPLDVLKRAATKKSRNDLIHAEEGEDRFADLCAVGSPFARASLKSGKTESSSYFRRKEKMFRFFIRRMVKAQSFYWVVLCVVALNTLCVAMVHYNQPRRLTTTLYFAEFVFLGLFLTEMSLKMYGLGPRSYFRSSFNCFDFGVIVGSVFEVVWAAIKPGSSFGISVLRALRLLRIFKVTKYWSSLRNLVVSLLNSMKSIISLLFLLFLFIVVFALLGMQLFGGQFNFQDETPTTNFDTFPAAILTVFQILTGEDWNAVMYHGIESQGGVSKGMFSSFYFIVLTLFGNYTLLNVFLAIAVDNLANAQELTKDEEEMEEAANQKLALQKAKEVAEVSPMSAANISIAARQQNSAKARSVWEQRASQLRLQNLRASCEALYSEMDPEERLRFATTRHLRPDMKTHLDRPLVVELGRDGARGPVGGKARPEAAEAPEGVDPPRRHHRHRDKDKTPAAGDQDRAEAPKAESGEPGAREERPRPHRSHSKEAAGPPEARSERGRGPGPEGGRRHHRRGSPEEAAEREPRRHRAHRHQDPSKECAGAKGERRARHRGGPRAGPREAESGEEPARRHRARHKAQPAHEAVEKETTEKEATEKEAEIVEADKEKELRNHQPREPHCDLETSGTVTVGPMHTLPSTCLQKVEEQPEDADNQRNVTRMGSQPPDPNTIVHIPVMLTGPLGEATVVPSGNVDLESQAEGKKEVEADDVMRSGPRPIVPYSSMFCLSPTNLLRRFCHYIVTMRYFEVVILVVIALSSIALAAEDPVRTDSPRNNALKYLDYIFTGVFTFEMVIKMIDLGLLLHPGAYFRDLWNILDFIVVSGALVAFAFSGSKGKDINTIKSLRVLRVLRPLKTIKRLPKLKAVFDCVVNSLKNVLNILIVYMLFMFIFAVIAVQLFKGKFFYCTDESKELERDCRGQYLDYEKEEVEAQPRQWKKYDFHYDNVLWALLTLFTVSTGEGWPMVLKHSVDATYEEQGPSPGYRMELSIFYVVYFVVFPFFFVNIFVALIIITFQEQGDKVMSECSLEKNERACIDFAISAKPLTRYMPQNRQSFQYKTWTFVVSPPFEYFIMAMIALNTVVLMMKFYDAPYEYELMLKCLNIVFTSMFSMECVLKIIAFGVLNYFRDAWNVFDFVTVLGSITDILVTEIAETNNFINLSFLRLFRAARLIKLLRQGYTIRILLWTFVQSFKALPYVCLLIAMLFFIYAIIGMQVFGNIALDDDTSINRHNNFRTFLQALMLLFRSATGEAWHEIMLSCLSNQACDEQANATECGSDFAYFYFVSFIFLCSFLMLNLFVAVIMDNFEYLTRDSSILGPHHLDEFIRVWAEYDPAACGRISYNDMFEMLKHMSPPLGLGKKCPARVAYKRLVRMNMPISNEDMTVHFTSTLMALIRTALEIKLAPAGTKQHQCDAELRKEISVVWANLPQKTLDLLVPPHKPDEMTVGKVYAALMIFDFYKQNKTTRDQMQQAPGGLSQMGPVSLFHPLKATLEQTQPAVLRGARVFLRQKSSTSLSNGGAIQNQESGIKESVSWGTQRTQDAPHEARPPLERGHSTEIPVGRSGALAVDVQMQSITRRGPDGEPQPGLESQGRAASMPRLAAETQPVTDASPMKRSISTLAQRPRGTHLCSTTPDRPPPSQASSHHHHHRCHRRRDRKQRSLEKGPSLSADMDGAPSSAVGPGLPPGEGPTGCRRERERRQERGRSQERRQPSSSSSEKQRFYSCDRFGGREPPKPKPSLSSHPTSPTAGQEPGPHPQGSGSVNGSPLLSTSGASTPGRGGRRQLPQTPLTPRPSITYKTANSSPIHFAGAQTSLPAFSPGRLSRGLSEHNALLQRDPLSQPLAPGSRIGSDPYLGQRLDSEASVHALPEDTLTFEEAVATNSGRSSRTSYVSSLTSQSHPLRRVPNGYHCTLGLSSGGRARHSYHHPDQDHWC
T2 sequence (Q02410 whole entry): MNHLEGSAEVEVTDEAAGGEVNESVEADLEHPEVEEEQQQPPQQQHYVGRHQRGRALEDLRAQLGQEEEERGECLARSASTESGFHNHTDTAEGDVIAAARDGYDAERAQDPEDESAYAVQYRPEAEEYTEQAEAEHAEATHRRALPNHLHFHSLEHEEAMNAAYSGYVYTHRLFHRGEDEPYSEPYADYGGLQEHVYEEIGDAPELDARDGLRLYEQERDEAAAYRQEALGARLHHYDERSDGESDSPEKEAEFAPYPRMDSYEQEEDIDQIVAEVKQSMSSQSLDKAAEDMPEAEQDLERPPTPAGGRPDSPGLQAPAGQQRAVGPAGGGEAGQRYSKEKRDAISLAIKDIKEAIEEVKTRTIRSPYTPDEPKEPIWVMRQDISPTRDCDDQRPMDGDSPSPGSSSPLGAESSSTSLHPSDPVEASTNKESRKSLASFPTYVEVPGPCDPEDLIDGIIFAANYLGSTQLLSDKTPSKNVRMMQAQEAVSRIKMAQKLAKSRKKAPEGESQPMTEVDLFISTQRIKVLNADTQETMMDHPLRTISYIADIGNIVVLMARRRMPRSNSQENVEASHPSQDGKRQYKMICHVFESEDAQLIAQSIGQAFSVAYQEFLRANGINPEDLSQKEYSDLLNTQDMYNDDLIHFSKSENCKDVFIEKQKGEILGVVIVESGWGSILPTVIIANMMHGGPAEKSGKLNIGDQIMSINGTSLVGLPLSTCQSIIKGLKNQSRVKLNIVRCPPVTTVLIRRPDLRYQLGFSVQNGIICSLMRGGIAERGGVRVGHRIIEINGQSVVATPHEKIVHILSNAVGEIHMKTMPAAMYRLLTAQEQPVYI
T1 sequence (P10635 whole entry): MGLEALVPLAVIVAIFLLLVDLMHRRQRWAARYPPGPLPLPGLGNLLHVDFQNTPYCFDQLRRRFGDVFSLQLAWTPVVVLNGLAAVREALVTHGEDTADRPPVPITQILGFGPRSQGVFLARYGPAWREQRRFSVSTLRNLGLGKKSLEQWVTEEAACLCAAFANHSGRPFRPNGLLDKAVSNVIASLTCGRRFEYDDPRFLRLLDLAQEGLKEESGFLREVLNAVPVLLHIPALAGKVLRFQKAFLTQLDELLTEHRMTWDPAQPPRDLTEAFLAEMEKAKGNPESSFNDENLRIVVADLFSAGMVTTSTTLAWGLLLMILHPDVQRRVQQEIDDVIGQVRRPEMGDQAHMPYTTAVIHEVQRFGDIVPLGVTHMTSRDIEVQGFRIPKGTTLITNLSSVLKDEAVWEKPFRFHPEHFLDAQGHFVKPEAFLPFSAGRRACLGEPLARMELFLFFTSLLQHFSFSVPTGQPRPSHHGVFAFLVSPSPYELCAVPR
Chain of CAAX prenyl protease 1 (P47154 whole entry): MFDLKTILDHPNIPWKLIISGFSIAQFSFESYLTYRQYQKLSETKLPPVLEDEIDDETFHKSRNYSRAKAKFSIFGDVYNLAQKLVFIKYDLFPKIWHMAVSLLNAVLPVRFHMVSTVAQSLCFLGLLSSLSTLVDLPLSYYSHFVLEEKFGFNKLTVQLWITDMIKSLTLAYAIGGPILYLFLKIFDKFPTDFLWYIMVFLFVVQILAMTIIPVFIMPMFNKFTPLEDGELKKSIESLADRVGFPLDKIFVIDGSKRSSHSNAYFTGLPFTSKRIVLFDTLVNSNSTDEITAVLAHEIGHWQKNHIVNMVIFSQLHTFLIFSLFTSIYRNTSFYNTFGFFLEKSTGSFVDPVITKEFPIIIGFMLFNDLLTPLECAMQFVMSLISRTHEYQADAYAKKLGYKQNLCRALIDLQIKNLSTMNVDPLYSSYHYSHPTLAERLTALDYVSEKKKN
Chain of Glyceraldehyde-3-phosphate dehydrogenase (P04406 whole entry): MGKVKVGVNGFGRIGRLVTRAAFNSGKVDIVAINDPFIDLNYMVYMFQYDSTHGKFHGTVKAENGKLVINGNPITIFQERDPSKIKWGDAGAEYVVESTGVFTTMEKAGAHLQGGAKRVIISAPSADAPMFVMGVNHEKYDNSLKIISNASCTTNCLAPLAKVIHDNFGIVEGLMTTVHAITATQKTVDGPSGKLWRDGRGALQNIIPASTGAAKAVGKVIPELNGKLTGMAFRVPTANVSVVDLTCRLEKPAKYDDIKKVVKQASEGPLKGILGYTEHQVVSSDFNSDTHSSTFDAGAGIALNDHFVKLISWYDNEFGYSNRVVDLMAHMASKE
Chain of Dual specificity protein phosphatase 6 (Q64346 whole entry): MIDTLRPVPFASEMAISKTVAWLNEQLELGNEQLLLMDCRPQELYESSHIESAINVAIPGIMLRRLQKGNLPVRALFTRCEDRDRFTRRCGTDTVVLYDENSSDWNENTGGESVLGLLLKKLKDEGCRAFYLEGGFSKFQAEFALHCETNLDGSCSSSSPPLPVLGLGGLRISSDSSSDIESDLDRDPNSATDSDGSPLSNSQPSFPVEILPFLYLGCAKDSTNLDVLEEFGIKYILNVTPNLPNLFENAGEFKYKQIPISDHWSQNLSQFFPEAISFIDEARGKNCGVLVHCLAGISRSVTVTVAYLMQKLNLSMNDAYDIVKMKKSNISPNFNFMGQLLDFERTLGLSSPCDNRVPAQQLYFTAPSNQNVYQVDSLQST

CC(C)(C)c1o[nH]c(=O)c1C[C@H](N)C(=O)O
AC50 (Cytochrome P450 2D6 [1]): 1.58 µM (inconclusive) | AC50 (Cytochrome P450 2D6 [2]): inconclusive

CCOC(=O)c1cc(C)nc(O)c1C#N
AC50 (CAAX prenyl protease 1): 12.3 µM (active)

O=C(Nc1nnc(-c2ccco2)o1)c1ccc(N2C(=O)CCC2=O)cc1
AC50 [3]: 126 µM (active) | AC50 [4]: 14.7 µM (active) | AC50 [5]: 13.9 µM (active)

O=C(O)CCN1C(=O)/C(=C2\C(=O)N(Cc3ccccc3Cl)c3ccccc32)SC1=S
IC50 [6]: > 50 µM (inactive) | IC50 [7]: 9.81 µM (active) | IC50 [8]: 30.9 µM (active) | IC50 (NS3): 3.06 µM (active) | IC50 [9]: < 1.23 µM (inactive) | IC50 [10]: 3.2 µM (active) | IC50 [11]: 1.91 µM (active) | IC50 [12]: 2.03 µM (active) | IC50 [13]: 2.88 µM (active) | IC50 [14]: > 100 µM (not active) | IC50 [15]: 0.549 µM (active)
